Key:
NR1I2 (PXR) = molecular target: T1, NR1I2 (PXR) (Homo sapiens, UniProt O75469); experiment: Gal4 hybrid reporter gene assay PXR; format: cell-based; conditions: 1 µM, n=3
T1 construct: expressed in transfected cells; host or cells: HEK293T
Description: (§1) Reference ligands are listed in the methods section.
(§2) HEK293T cells (ATCC, Manassas, Virgina, USA; #CRL-3216) were cultured to a maximal confluence of 70–80% in DMEM, high glucose, supplemented with 10% FCS, sodium pyruvate (1 mM), penicillin (100 U/mL), and streptomycin (100 μg/mL) at 37 °C and 5% CO2 (v/v), and seeded in clear 96-well plates (4 × 10^4 cells per well). After 20–24 h, medium was changed to Opti-MEM without supplements and the cells were transiently transfected using Lipofectamine™ LTX/Plus™ Reagents (Invitrogen, Carlsbad, California, USA; #15338100) according to the manufacturer’s protocol with pFR-Luc (reporter gene; Stratagene, Agilent Technologies, Santa Clara, California, USA; #219050), pRL-SV40 (control gene for normalization of transfection efficiency and cell growth; Promega, Fitchburg, Wisconsin, USA; #E2231) and one pFA-CMV-hNR-LBD clone coding for the hinge region and ligand binding domain (LBD) of the human NR of interest. […] Firefly (reporter) and renilla (control) luminescence were measured after 14–16 h incubation using the Dual-Glo® Luciferase Assay System (Promega, Fitchburg, Wisconsin, USA; #E2980) according to manufacturer’s protocol on a Tecan Spark® 10M multimode microplate reader (Tecan Group AG, Männedorf, Switzerland). To obtain relative light units (RLU) firefly luminescence was divided by renilla luminescence and multiplied by 1000. […]

NR1C3 (PPARγ) = molecular target: T2, NR1C3 (PPARγ) (Homo sapiens, UniProt P37231); experiment: Gal4 hybrid reporter gene assay PPARγ; format: cell-based; conditions: n=3
T2 construct: expressed in transfected cells; host or cells: HEK293T
Description: as §1, §2

NR4A1 (Nur77) = molecular target: T3, NR4A1 (Nur77) (Homo sapiens, UniProt P22736); experiment: Gal4 hybrid reporter gene assay Nur77; format: cell-based; conditions: 10 µM, n=3
T3 construct: expressed in transfected cells; host or cells: HEK293T
Description: as §1, §2

NR1F3 (RORγ) = molecular target: T4, NR1F3 (RORγ) (Homo sapiens, UniProt P51449); experiment: Gal4 hybrid reporter gene assay RORγ; format: cell-based; conditions: 3 µM, n=3
T4 construct: expressed in transfected cells; host or cells: HEK293T
Description: as §1, §2

NR3B3 (ERRγ) = conditions: (lit.); ref Supplementary Table 1; read-out: Potency [nM] EC50, NR3B3 (ERRγ); cited from earlier work
NR3C2 (MR) = conditions: rem. act.; cited from earlier work
NR3C3 (PR) = conditions: cited from earlier work; for IC50: (lit.), ref Supplementary Table 1, read-out: Potency [nM] IC50, NR3C3 (PR)
NR5A2 (LRH1) = experiment: Gal4 hybrid reporter gene assay LRH1; format: cell-based, human; conditions: 1 µM; n=3; vs. DMSO ctrl
Description: as §1, §2

T2 sequence (P37231 238-503 limits assumed): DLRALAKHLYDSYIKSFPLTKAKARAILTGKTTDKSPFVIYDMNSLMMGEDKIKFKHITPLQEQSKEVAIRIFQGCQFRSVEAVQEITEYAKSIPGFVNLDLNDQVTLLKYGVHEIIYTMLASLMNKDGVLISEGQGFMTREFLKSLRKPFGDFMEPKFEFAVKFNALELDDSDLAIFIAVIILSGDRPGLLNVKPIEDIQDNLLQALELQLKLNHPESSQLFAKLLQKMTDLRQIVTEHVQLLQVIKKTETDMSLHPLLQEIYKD
T4 sequence (P51449 269-508 limits assumed): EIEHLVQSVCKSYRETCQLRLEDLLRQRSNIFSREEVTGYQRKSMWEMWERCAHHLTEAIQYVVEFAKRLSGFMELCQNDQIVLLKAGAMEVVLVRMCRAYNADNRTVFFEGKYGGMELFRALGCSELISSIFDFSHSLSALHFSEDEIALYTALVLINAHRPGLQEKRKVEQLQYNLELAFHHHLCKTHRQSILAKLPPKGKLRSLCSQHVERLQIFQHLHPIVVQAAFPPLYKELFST
T1 sequence (O75469 146-433 limits assumed): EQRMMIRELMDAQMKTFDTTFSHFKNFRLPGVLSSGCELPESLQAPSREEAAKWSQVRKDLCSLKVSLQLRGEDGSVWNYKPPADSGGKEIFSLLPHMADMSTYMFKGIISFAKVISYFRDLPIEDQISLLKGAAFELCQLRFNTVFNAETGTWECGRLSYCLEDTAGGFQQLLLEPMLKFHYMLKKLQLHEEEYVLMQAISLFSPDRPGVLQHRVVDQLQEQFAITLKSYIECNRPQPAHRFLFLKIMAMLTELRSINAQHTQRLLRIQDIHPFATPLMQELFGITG
T3 sequence (P22736 360-595 limits assumed): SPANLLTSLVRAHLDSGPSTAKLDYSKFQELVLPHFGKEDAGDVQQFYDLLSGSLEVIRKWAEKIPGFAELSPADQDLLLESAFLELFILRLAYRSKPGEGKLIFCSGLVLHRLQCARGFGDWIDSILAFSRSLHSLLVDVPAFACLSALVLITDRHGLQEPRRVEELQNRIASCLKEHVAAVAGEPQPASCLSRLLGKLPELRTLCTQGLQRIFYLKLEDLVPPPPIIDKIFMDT

With CC/C(=C(/c1ccc(/C=C/C(=O)O)cc1)c1ccc2[nH]ncc2c1)c1ccc(F)cc1Cl [ARN810] the “Activity on NR1I2 (PXR)” value (NR1I2 (PXR)) was -0.68 mean log10(fold reporter gene activity).

In the case of COc1ccc(-c2coc3cc(O)cc(O)c3c2=O)cc1 [Biochanin A], the “Activity on NR1C3 (PPARγ)” value (NR1C3 (PPARγ); 10 µM) is reported as -0.56 mean log10(fold reporter gene activity) and the “Activity on NR4A1 (Nurr77)” value (NR4A1 (Nur77)) is reported as 0.34 mean log10(fold reporter gene activity).

In the case of CCCC1O[C@@H]2C[C@H]3[C@@H]4CCC5=CC(=O)C=C[C@]5(C)[C@H]4[C@@H](O)C[C@]3(C)[C@]2(C(=O)CO)O1 (stereo partly drawn) [Budesonide], the “Activity on NR1F3 (RORγ)” value (NR1F3 (RORγ)) is reported as -0.30 mean log10(fold reporter gene activity).

For CCN(CC)c1ccc(/C=N/NC(=O)c2ccc(O)cc2)cc1 [DY131], the EC50 (NR3B3 (ERRγ)) is given as 130 nM and the “Activity on NR targets outside NR3 family [mean log10(fold reporter gene activity)] NR1F3 (RORγ)” value (NR1F3 (RORγ); vs. DMSO ctrl) is given as 0.21 log10(fold reporter gene activity).

For CC#C[C@]1(O)CC[C@H]2[C@@H]3CCC4=CC(=O)CCC4=C3[C@@H](c3ccc(N(C)C)cc3)C[C@@]21C [Mifepristone], the “rel. activity from literature, NR3C2 (MR): % rem. act.” value (NR3C2 (MR)) is given as 4%, the IC50 (NR3C3 (PR)) is given as […] and the “rel. activity from literature, NR3C3 (PR): % rem. act. of PGN” value (NR3C3 (PR); rem. act. of PGN (progesterone)) is given as […].

With COc1cc(/C=C(\C#N)C(=O)Nc2nnc(C(F)(F)F)s2)ccc1OCc1ccc(C(F)(F)F)cc1C(F)(F)F [XCT790] the “Activity on NR targets outside NR3 family [mean log10(fold reporter gene activity)] NR1C3 (PPARγ)” value (NR1C3 (PPARγ); 1 µM, vs. DMSO ctrl) was 0.75 log10(fold reporter gene activity) and the “Activity on NR targets outside NR3 family [mean log10(fold reporter gene activity)] NR5A2 (LRH1)” value (NR5A2 (LRH1)) was 0.20 log10(fold reporter gene activity).

In the case of C/C=C1\C(=O)C[C@H]2[C@@H]3CCC4=CC(=O)CC[C@]4(C)[C@H]3CC[C@]12C [Z-Guggulsterone], the IC50 (NR3C3 (PR)) is listed as 740 ± 220 nM.
